One compound from PMC5874699, “Antimicrobial and Antibiofilm Activity of UP-5, an Ultrashort Antimicrobial Peptide Designed Using Only Arginine and Biphenylalanine” (Pharmaceuticals, 2018) can be followed below.

Where two headings read alike, the source gives them in different places. Square brackets hold non-standard residues; d marks the D form. Peptide text beside a SMILES is read from it. Bip = N[C@@H](Cc1ccc(-c2ccccc2)cc1)C(=O)O

Assay [1] relates to P. aeruginosa (ATCC BAA-2114). Put plainly: Broth microdilution checkerboard, UP-5 with antibiotics. In kind it is cell-based, Pseudomonas aeruginosa. The note with it: P. auroginosa ATCC BAA-2114, checkerboard, triplicate. The source says: All bacterial susceptibility, biofilm, and synergistic assays of peptides, antibiotics, and peptides-antibiotics combinations used bacterial strains obtained from the American Type Tissue Culture Collection (ATCC, Manassas, VA, USA) that states the mechanism of resistance for each strain according to ATCC number. Gram-positive bacteria were represented by five strains, the wild type strain Staphylococcus aureus (ATCC 29213) and methicillin-resistant S. aureus (MRSA) (ATCC 33591) in addition to clinically isolated strains S. aureus (ATCC BAA-41& 43300) and Enterococcus faecalis (ATCC BAA-2316). The Gram-negative bacteria strains were represented by wild type strains of Escherichia coli (ATCC 25922 & 35218) and Pseudomonas aeruginosa (ATCC 27853) as well as the clinically isolated multidrug-resistant strain P. aeruginosa (ATCC BAA-2114). The bacteria were cultured onto Muller Hinton Agar (Scharlab, S.L, Barcelona, Spain). Mueller Hinton Broth (Oxoid Ltd., Basingstoke, UK) was used to prepare all bacterial suspensions and to dissolve the peptides and the antibiotics. The assay was performed in sterile 96-well polypropylene microtiter plates.
According to the broth microdilution checkerboard technique, the MIC and MBC values of peptide-antibiotics combinations against wild type and multidrug resistant bacterial strains were determined. Serial concentrations of peptide and each antibiotic were prepared in the range of 0.005–100 μM. In each well of a 96-well microtiter plate, 25 μL of each peptide concentration were added to 25 μL of each antibiotic concentration which is followed by adding 50 μL of diluted bacterial suspension (10^6 CFU/mL) to each well. The prepared concentrations of peptide and each antibiotic were arranged into rows and columns, respectively, in a 96-well microtiter plate according the checkerboard technique. Then as described previously (see Section 2.4.1), the procedure was followed. All MIC and MBC determinations of all assays were made in triplicate.
The fractional inhibitory concentration (FIC) is defined as the inhibitory concentration of the antimicrobial combination divided by that of the single antimicrobial component. To calculate FIC index for peptide-antibiotic combinations, the following equation was used:(1) FIC index=MIC of drug X in combination/MIC of drug X alone+MIC of drug Y in combination/MIC of drug Y alone
The FIC indices were interpreted as follows: ≤0.5: synergistic activity, 0.5–1: additive activity, 1–4 indifferent, >4: antagonism. Interpretation and assessment of the FIC indices were performed according to the broth microdilution checkerboard technique.
On the technique in general: In broth dilution the organism is exposed to a series of concentrations in liquid medium.

For assay [2], the system named is S. aureus (ATCC 33591) biofilm. The format is cell-based, Staphylococcus aureus. The note with it: for Viable Biofilm Cells (%): 4 h treatment 37 °C, 8 h recovery, colony count. As for the experimental part:
Biofilm formation relied on a published protocol employing the Calgary biofilm device (Innovotech, Edmonton, AB, Canada). Briefly, S. aureus (ATCC 33591) bacterial strain was incubated in MHB and cultures were diluted in the same medium to achieve a concentration of 10^5 CFU/mL. Next, diluted bacterial suspension (150 µL) was added to the sterile 96 peg-lids on which biofilm cells can build up. Negative control lanes were prepared by adding 150 µL MHB to six wells. And then the pegs were incubated for 14–16 h under rotation of 125 rpm at 37 °C to allow biofilm formation on the purpose designed pegs. The pegs were rinsed twice with phosphate-buffered saline (PBS) to remove planktonic cells as a washing step. Each peg-lid was then transferred into a “challenge 96-well microtiter plate” containing 200 μL of different peptides concentrations and the peg-lids containing the biofilms were incubated for four hours at 37 °C under rotation at 125 rpm. After biofilm treatment with the challenge plate, the biofilms were re-washed twice with PBS then transferred into the recovery plate for eight hours. The minimum biofilm eradication concentration MBEC value is defined as the minimum concentration needed to inhibit the re-growth of biofilms after four hours of peptide treatment, washing twice with PBS and incubating in pre-sterilized MHB (recovery plate) for 8 h, using an ELISA plate reader λ = 600 nm. Additionally, the biofilms were assessed for their minimum bactericidal concentration (MBECb), this assay was conducted similar to MBC assay (see Section 2.4.1). MBECb parameter is defined as the lowest concentration able to eradicate 3log^10 of the viable microorganisms in a biofilm (99.9% killing) after 8 h of incubation in recovery plates using the colony count method.

As for `N=C(N)NCCC[C@H](NC(=O)[C@H](Cc1ccc(-c2ccccc2)cc1)NC(=O)[C@H](CCCNC(=N)N)NC(=O)[C@H](Cc1ccc(-c2ccccc2)cc1)NC(=O)[C@@H](N)CCCNC(=N)N)C(=O)O` [UP-5] (H-R[Bip]R[Bip]R-OH), the “UP-5 MIC in Combination” value is 20 µM in assay [1] (UP-5 in combination with Ampicillin); 10 µM in assay [1] (UP-5 in combination with Chloramphenicol); 27.5 µM in assay [1] (UP-5 in combination with Erythromycin); 20 µM in assay [1] (UP-5 in combination with Levofloxacin); 25 µM in assay [1] (UP-5 in combination with Rifampicin). For the same compound, the “MBEC value (minimum biofilm eradication concentration)” value in assay [2] (ATCC 33591, 4 h) came out at 20 µM. Besides, the “MBCb (MBECb), minimum bactericidal concentration against biofilm cells” value in assay [2] (ATCC 33591, 8 h) amounted to 20 µM. Further, the “Viable Biofilm Cells (%)” value in assay [2] (peptide concentration 10 μM) amounted to 0.35%; in assay [2] (peptide concentration 20 μM), 0.108%; in assay [2] (peptide concentration 30 μM), 0.054%; in assay [2] (peptide concentration 40 μM) it was 0%; in assay [2] (peptide concentration 60 μM), 0%; in assay [2] (peptide concentration 80 μM), 0%. In assay [2] (peptide concentration 100 μM, compared to untreated biofilm), the “Viable Biofilm Cells (%)” value is on record as 0%.
